Experimental data reported in ChEMBL document CHEMBL1132553, “Design, synthesis, and biological evaluation of matrix metalloproteinase inhibitors derived from a modified proline scaffold” (J Med Chem, 1999).
pIC50: −log10 of the molar value.

Tests used:
Stromelysin-1 = Stromelysin-1 (Homo sapiens, UniProt P08254); test: In vitro inhibition activity of human recombinant stromelysin (Matrix metalloprotease-3)
Rattus norvegicus [1] = organism: Rattus norvegicus; test: In vitro percent permeability into rat ileum; Range is 28-36; format: ADME; details: in vivo
Matrilysin = molecular target: T1, Matrilysin (Homo sapiens, UniProt P09237); test: In vitro inhibition of matrilysin (Matrix metalloprotease-7, MMP-7)
T1 sequence (P09237 whole entry): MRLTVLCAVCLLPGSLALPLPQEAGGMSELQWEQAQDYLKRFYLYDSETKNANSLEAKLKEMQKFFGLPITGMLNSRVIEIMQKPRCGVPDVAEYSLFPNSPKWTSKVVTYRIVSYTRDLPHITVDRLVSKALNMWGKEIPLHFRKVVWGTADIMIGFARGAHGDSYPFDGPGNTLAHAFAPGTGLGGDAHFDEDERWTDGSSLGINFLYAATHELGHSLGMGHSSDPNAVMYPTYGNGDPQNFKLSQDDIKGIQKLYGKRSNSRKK

Interstitial collagenase = molecular target: T2, Interstitial collagenase (Homo sapiens, UniProt P03956); test: In vitro inhibition of human recombinant collagenase-1 (Matrix metalloprotease-1, MMP-1)
T2 sequence (P03956 whole entry): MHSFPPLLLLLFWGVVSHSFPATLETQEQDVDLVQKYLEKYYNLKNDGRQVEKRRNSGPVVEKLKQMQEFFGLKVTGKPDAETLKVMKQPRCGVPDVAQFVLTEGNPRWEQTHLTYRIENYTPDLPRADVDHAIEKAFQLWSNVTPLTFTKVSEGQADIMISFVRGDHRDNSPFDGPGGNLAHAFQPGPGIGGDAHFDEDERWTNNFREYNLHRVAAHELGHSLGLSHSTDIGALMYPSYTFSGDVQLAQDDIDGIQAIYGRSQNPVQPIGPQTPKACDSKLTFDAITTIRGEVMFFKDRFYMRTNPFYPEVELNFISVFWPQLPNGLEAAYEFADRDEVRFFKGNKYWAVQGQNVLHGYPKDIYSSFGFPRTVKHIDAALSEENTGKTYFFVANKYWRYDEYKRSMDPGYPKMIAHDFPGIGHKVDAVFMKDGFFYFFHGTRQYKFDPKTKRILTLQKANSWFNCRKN

Collagenase 3 = Collagenase 3 (Homo sapiens, UniProt P45452); test: In vitro inhibition of human recombinant collagenase-3 (Matrix metalloprotease-13)
[2] = molecular target: 72 kDa type IV collagenase (Homo sapiens, UniProt P08253)
72 kDa type IV collagenase, sequence (P08253 whole entry): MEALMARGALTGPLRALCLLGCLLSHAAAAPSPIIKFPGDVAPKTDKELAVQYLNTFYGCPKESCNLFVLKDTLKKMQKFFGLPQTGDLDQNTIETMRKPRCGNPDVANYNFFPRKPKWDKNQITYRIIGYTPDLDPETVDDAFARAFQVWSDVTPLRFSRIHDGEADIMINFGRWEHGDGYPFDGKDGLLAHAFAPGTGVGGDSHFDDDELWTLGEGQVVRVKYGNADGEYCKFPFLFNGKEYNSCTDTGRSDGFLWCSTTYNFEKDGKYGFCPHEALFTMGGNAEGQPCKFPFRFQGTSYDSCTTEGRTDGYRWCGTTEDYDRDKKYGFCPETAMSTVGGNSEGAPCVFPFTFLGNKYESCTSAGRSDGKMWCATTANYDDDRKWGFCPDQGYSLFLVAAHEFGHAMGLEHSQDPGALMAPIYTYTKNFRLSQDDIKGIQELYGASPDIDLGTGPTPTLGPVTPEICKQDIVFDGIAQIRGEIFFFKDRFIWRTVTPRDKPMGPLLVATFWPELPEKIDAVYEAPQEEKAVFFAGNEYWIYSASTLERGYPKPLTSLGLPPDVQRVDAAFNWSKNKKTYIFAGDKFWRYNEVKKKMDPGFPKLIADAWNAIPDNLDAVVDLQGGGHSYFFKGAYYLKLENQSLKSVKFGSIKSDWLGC
Description: In vitro inhibitory activity against gelatinase-A (matrix metalloprotease-2).

Rattus norvegicus [3] = organism: Rattus norvegicus; test: In vitro percent permeability into rat ileum; nd indicates not detected; format: ADME; details: in vivo
Rattus norvegicus [4] = organism: Rattus norvegicus; test: In vitro percent permeability into rat ileum; Range is 2-5; format: ADME; details: in vivo
Rattus norvegicus [5] = organism: Rattus norvegicus; test: In vitro percent permeability into rat ileum; Range is 15-18; format: ADME; details: in vivo
Rattus norvegicus [6] = organism: Rattus norvegicus; test: In vitro percent permeability into rat ileum; format: ADME; details: in vivo
Rattus norvegicus [7] = organism: Rattus norvegicus; test: In vitro percent permeability into rat ileum; Range is 50-68; format: ADME; details: in vivo
Rattus norvegicus [8] = organism: Rattus norvegicus; test: In vitro percent permeability into rat ileum; Range is 29-35; format: ADME; details: in vivo
Rattus norvegicus [9] = organism: Rattus norvegicus; test: In vitro percent permeability into rat ileum; nt indicates not detected; format: ADME; details: in vivo
Rattus norvegicus [10] = organism: Rattus norvegicus; test: In vitro percent permeability into rat ileum; Range is 10-19; format: ADME; details: in vivo
Rattus norvegicus [11] = organism: Rattus norvegicus; test: In vitro percent permeability into rat ileum; Range is 46-66; format: ADME; details: in vivo
Rattus norvegicus [12] = organism: Rattus norvegicus; test: In vitro percent permeability into rat ileum; Range is 12-15; format: ADME; details: in vivo
Rattus norvegicus [13] = organism: Rattus norvegicus; test: In vitro percent permeability into rat ileum; Range is 13-19; format: ADME; details: in vivo
Rattus norvegicus [14] = organism: Rattus norvegicus; test: In vitro percent permeability into rat ileum; insol indicates not soluble in aqueous buffer; format: ADME
[15] = In vitro percent permeability into rat ileum; Range is 23-42; format: ADME, tissue-based
Rattus norvegicus [16] = organism: Rattus norvegicus; test: In vitro percent permeability into rat ileum; Range is 78-81; format: ADME; details: in vivo
Rattus norvegicus [17] = organism: Rattus norvegicus; test: In vitro percent permeability into rat ileum; Range is 14-17; format: ADME; details: in vivo
Rattus norvegicus [18] = organism: Rattus norvegicus; test: In vitro percent permeability into rat ileum; Range is 10-17; format: ADME; details: in vivo

Stromelysin-1, sequence (P08254 whole entry): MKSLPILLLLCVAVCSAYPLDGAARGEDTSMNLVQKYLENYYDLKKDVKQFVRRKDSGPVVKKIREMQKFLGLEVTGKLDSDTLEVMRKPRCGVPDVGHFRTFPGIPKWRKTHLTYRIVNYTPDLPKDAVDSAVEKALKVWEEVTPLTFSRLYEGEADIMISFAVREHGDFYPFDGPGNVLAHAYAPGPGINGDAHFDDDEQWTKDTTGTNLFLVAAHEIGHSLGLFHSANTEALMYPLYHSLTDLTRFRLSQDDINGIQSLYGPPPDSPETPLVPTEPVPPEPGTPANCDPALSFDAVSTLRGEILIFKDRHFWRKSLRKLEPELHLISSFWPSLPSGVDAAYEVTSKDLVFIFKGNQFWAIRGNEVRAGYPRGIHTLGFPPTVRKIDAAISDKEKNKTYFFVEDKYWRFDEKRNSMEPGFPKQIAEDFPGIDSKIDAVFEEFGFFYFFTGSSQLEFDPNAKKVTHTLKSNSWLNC

SMILES | pIC50 (Stromelysin-1) | pIC50 (Matrilysin) | pIC50 (Interstitial collagenase) | pIC50 (Collagenase 3) | pIC50 [2] | also measured
CCCCOc1ccc(S(=O)(=O)N2C/C(=N\OC)C[C@@H]2C(=O)NO)cc1 | 9.00 | 7.05 | 7.59 | 9.52 | > 9.00 | Absorption (Rattus norvegicus [1]): 36%
O=C(NO)[C@H]1C/C(=N/Oc2ccccc2)CN1S(=O)(=O)c1ccc(Oc2ccncc2)cc1 | 8.30 | 6.11 | 7.49 | 9.40 |  | Absorption (Rattus norvegicus [3]): None detected
CCCCOc1ccc(S(=O)(=O)N2C/C(=N\O)C[C@@H]2C(=O)NO)cc1 | 8.30 | 6.51 | 6.92 | 9.52 | 9.70 | Absorption (Rattus norvegicus [4]): 5%
CO/N=C1/C[C@H](C(=O)NO)N(S(=O)(=O)c2ccc(Oc3ccccc3)cc2)C1 | 8.70 | 7.22 | 8.52 | > 9.40 | > 9.40 | Absorption (Rattus norvegicus [5]): 18%
CCCCOc1ccc(S(=O)(=O)N2C/C(=N\N3CCOCC3)C[C@@H]2C(=O)NO)cc1 | 8.70 | 6.71 | 6.53 | > 9.00 |  | Absorption (Rattus norvegicus [6]): 1%
CO/N=C1/C[C@H](C(=O)NO)N(S(=O)(=O)c2ccc(Oc3ccncc3)cc2)C1 | 8.30 | 6.04 |  | > 9.70 | 9.52 | Absorption (Rattus norvegicus [7]): 68%
COc1ccc(S(=O)(=O)N2C/C(=N\O)C[C@@H]2C(=O)NO)cc1 | 8.30 |  | 7.77 | 9.70 | 9.70 | Absorption (Rattus norvegicus [8]): 35%
C=C1C[C@H](C(=O)NO)N(S(=O)(=O)c2ccc(OCCC)cc2)C1 | 7.80 | 5.59 | 6.81 | 9.00 | 8.70 | 
C=C1C[C@H](C(=O)NO)N(S(=O)(=O)c2ccc(OCCCC)cc2)C1 | 7.82 | 5.97 | 6.48 | 9.15 | 9.10 | 
CCCCOc1ccc(S(=O)(=O)N2C/C(=N\OC(C)(C)C)C[C@@H]2C(=O)NO)cc1 | 7.96 | 6.53 | 7.13 | 9.40 | 9.30 | Absorption (Rattus norvegicus [9]): None detected
CONC1C[C@H](C(=O)NO)N(S(=O)(=O)c2ccc(Oc3ccccc3)cc2)C1 (some centres undefined) | 8.22 | 5.75 | 7.07 | > 9.40 | > 9.40 | 
CCCCOc1ccc(S(=O)(=O)N2C/C(=N\N3CCNCC3)C[C@@H]2C(=O)NO)cc1 | 8.52 | 6.46 | 6.74 | > 9.00 |  | Absorption (Rattus norvegicus [10]): 19%
C=C1C[C@H](C(=O)NO)N(S(=O)(=O)c2ccc(OC)cc2)C1 |  | 4.91 | 7.05 | 8.40 |  | Absorption (Rattus norvegicus [11]): 66%
CCCOc1ccc(S(=O)(=O)N2C/C(=N\OC)C[C@@H]2C(=O)NO)cc1 | 8.70 | 6.42 | 7.89 | > 9.00 | > 9.40 | 
CONC1C[C@H](C(=O)NO)N(S(=O)(=O)c2ccc(OC)cc2)C1 (some centres undefined) | 7.72 | 5.47 | 6.67 | 8.52 | 8.30 | Absorption (Rattus norvegicus [12]): 15%
COc1ccc(S(=O)(=O)N2C/C(=N\OC(C)(C)C)C[C@@H]2C(=O)NO)cc1 | 8.05 | 6.58 | 7.70 | > 9.30 | 9.15 | Absorption (Rattus norvegicus [13]): 19%
CC(C)(C)O/N=C1/C[C@H](C(=O)NO)N(S(=O)(=O)c2ccc(Oc3ccc(F)cc3)cc2)C1 | > 9.00 | 5.99 | 7.62 | 9.70 | > 9.40 | Absorption (Rattus norvegicus [14]): Insoluble
CCOc1ccc(S(=O)(=O)N2C/C(=N\OC)C[C@@H]2C(=O)NO)cc1 | 7.80 | 5.98 | 7.66 | 9.15 | 9.52 | Absorption [15]: 42%
COc1ccc(S(=O)(=O)N2CC(NOC(C)(C)C)C[C@@H]2C(=O)NO)cc1 (some centres undefined) | 7.70 | 5.28 | 6.59 | 8.52 | 8.40 | 
C=C1C[C@H](C(=O)NO)N(S(=O)(=O)c2ccc(Oc3ccccc3)cc2)C1 | 7.85 | 7.28 | 7.82 | > 9.40 | 9.40 | 
CO/N=C1/C[C@H](C(=O)NO)N(S(=O)(=O)c2ccc(OC)cc2)C1 | 8.52 | 7.09 | 8.00 | > 9.30 | > 9.00 | Absorption (Rattus norvegicus [16]): 81%
COCCOc1ccc(S(=O)(=O)N2C/C(=N\OC)C[C@@H]2C(=O)NO)cc1 | 7.82 | 6.21 | 6.96 | > 9.40 | 9.30 | 
CC(C)(C)O/N=C1/C[C@H](C(=O)NO)N(S(=O)(=O)c2ccc(Oc3ccncc3)cc2)C1 | 8.30 | 6.11 | 7.59 | > 9.40 | > 9.40 | 
COCCOc1ccc(S(=O)(=O)N2CC(NOC)C[C@@H]2C(=O)NO)cc1 (some centres undefined) | 6.65 | 5.17 |  | 8.10 | 7.96 | 
CCCCOc1ccc(S(=O)(=O)N2C/C(=N\OCC(C)C)C[C@@H]2C(=O)NO)cc1 | 7.92 | 6.38 | 7.12 | > 10.00 | > 9.40 | 
CCCCOc1ccc(S(=O)(=O)N2CC(NOC)C[C@@H]2C(=O)NO)cc1 (some centres undefined) | 7.68 | 5.68 | 6.10 | 8.70 | 9.00 | Absorption (Rattus norvegicus [17]): 17%
C=C1C[C@H](C(=O)NO)N(S(=O)(=O)c2ccc(OCCOC)cc2)C1 | 7.16 | < 5.00 | 5.81 | 7.96 | 8.05 | 
CO/N=C1/C[C@H](C(=O)NO)N(S(=O)(=O)c2ccc(Oc3ccc(F)cc3)cc2)C1 | > 9.00 | > 7.62 | 8.52 | 9.10 | > 9.40 | 
CCCCOc1ccc(S(=O)(=O)N2C/C(=N\OCc3ccccc3)C[C@@H]2C(=O)NO)cc1 | 7.77 | 6.31 | 6.90 | 10.00 | > 9.40 | 
CCCCOc1ccc(S(=O)(=O)N2C/C(=N\OCC)C[C@@H]2C(=O)NO)cc1 | 8.70 | 7.41 | 7.41 | 9.30 | > 9.40 | Absorption (Rattus norvegicus [18]): 17%
